Target: HDM2 protein (Homo sapiens, UniProt Q00987)
Experiment: fluorescence polarization screening assay (FP IC50)
Type: binding
Conditions: class symbols
Method: The compounds were evaluated to determine activity at the HDM2 protein by known methods such as the fluorescence polarization screening assay that measures the inhibitory concentration that achieves 50% of maximal activity (FP IC50) and the dissociation constant for inhibitor binding (FP Ki). [Zhang et al., J. Analytical Biochemistry 331: 138-146 (2004)].

HDM2 protein, sequence (Q00987 whole entry): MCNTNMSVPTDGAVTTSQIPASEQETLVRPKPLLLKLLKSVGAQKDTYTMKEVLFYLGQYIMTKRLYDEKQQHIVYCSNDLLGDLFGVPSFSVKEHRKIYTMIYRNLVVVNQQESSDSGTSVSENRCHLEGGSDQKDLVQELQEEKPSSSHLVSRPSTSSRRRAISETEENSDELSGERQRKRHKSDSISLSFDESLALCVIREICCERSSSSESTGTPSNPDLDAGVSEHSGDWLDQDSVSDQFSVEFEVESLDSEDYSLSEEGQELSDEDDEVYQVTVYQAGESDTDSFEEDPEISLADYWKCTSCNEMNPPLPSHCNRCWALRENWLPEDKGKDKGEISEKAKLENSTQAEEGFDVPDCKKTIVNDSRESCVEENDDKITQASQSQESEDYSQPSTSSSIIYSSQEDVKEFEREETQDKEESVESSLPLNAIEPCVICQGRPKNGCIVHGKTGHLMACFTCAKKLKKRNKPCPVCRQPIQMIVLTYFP

Row | IC50 [nM] | Structure (SMILES)
1 | 1 to 100 | CCC[C@H]1N(C(=O)c2ncccc2C(F)(F)F)CCC[C@@]1(Oc1csc(C(F)(F)F)c1)C(=O)N1CCc2cc(F)ccc2C1CCC(=O)O (stereo partly drawn) [Compound A42, 3-(6-fluoro-2-{[(2R,3S)-2-propyl-1-{[3-(trifluoromethyl)pyridin-2-yl]carbonyl}-3-{[5-(trifluoromethyl)thiophen-3-yl]oxy}piperidin-3-yl]carbonyl}-1,2,3,4-tetrahydroisoquinolin-1-yl)propanoic acid]
2 | 1 to 100 | CCC[C@H]1N(C(=O)c2ncccc2C(F)(F)F)CCC[C@@]1(Oc1csc(C(F)(F)F)c1)C(=O)N1CCc2cc(F)ccc2C1CCCCC(=O)O (stereo partly drawn) [Compound A43, 5-(6-fluoro-2-{[(2R,3S)-2-propyl-1-{[3-(trifluoromethyl)pyridin-2-yl]carbonyl}-3-{[5-(trifluoromethyl)thiophen-3-yl]oxy}piperidin-3-yl]carbonyl}-1,2,3,4-tetrahydroisoquinolin-1-yl)pentanoic acid]
3 | 1 to 100 | CCC[C@H]1N(C(=O)c2ncccc2C(F)(F)F)CCC[C@@]1(Oc1csc(C(F)(F)F)c1)C(=O)N1CCc2cc(F)ccc2C1CCC(=O)O (stereo partly drawn) [Compound A44, 3-(6-fluoro-2-{[(2R,3S)-2-propyl-1-{[3-(trifluoromethyl)pyridin-2-yl]carbonyl}-3-{[5-(trifluoromethyl)thiophen-3-yl]oxy}piperidin-3-yl]carbonyl}-1,2,3,4-tetrahydroisoquinolin-1-yl)propanoic acid]
4 | 1 to 100 | CCC[C@H]1N(C(=O)c2ncccc2C(F)(F)F)CCC[C@@]1(Oc1csc(C(F)(F)F)c1)C(=O)N1CCc2cc(Cl)ccc2[C@H]1CCC(=O)O [Compound A45, 3-[(1R)-6-chloro-2-{[(2R,3S)-2-propyl-1-{[3-(trifluoromethyl)pyridin-2-yl]carbonyl}-3-{[5-(trifluoromethyl)thiophen-3-yl]oxy}piperidin-3-yl]carbonyl}-1,2,3,4-tetrahydroisoquinolin-1-yl]propanoic acid]
5 | 101 to 20000 | CCC[C@H]1N(C(=O)c2ncccc2C(F)(F)F)CCC[C@@]1(Oc1csc(C(F)(F)F)c1)C(=O)N1CCc2cc(C#N)ccc2C1 [Compound A46]
6 | 101 to 20000 | CCC[C@H]1N(C(=O)c2ncccc2C(F)(F)F)CCC[C@@]1(Oc1csc(C(F)(F)F)c1)C(=O)N1CCc2cc(OC)ccc2C1 [Compound A47, 6-methoxy-2-{[(2R,3S)-2-propyl-1-{[3-(trifluoromethyl)pyridin-2-yl]carbonyl}-3-{[5-(trifluoromethyl)thiophen-3-yl]oxy}piperidin-3-yl]carbonyl}-1,2,3,4-tetrahydroisoquinoline]
7 | 101 to 20000 | CCC[C@H]1N(C(=O)c2ncccc2C(F)(F)F)CCC[C@@]1(Oc1csc(C(F)(F)F)c1)C(=O)N1CCc2cc(F)ccc2C1 [Compound A48, 6-fluoro-2-{[(2R,3S)-2-propyl-1-{[3-(trifluoromethyl)pyridin-2-yl]carbonyl}-3-{[5-(trifluoromethyl)thiophen-3-yl]oxy}piperidin-3-yl]carbonyl}-1,2,3,4-tetrahydroisoquinoline]
8 | 1 to 100 | CCC[C@H]1N(C(=O)c2ncccc2C(F)(F)F)CCC[C@@]1(Oc1csc(C(F)(F)F)c1)C(=O)N1CCc2cc(Cl)ccc2C1 [Compound A49, 6-chloro-2-{[(2R,3S)-2-propyl-1-{[3-(trifluoromethyl)pyridin-2-yl]carbonyl}-3-{[5-(trifluoromethyl)thiophen-3-yl]oxy}piperidin-3-yl]carbonyl}-1,2,3,4-tetrahydroisoquinoline]
9 | 1 to 100 | CCC[C@H]1N(C(=O)c2ncccc2C(F)(F)F)CCC[C@@]1(Oc1csc(C(F)(F)F)c1)C(=O)N1CCc2cc(Br)ccc2C1 [Compound A50, 6-bromo-2-{[(2R,3S)-2-propyl-1-{[3-(trifluoromethyl)pyridin-2-yl]carbonyl}-3-{[5-(trifluoromethyl)thiophen-3-yl]oxy}piperidin-3-yl]carbonyl}-1,2,3,4-tetrahydroisoquinoline]
10 | 1 to 100 | CCC[C@H]1N(C(=O)c2ncccc2C(F)(F)F)CCC[C@@]1(Oc1csc(C(F)(F)F)c1)C(=O)N1CCc2cc(F)ccc2C1CCCO (stereo partly drawn) [Compound A51, 3-(6-fluoro-2-{[(2R,3S)-2-propyl-1-{[3-(trifluoromethyl)pyridin-2-yl]carbonyl}-3-{[5-(trifluoromethyl)thiophen-3-yl]oxy}piperidin-3-yl]carbonyl}-1,2,3,4-tetrahydroisoquinolin-1-yl)propan-1-ol]
11 | 1 to 100 | CCC[C@H]1N(C(=O)c2ncccc2C(F)(F)F)CCC[C@@]1(Oc1csc(C(F)(F)F)c1)C(=O)N1CCc2cc(F)ccc2C1CC(=O)O (stereo partly drawn) [Compound A52, (6-fluoro-2-{[(2R,3S)-2-propyl-1-{[3-(trifluoromethyl)pyridin-2-yl]carbonyl}-3-{[5-(trifluoromethyl)thiophen-3-yl]oxy}piperidin-3-yl]carbonyl}-1,2,3,4-. tetrahydroisoquinolin-1-yl)acetic acid]
12 | 1 to 100 | CCC[C@H]1N(C(=O)c2ncccc2C(F)(F)F)CCC[C@@]1(Oc1csc(C(F)(F)F)c1)C(=O)N1CCc2cc(Cl)ccc2C1CC(=O)O (stereo partly drawn) [Compound A53, (6-chloro-2-{[(2R,3S)-2-propyl-1-{[3-(trifluoromethyl)pyridin-2-yl]carbonyl}-3-{[5-(trifluoromethyl)thiophen-3-yl]oxy}piperidin-3-yl]carbonyl}-1,2,3,4-. tetrahydroisoquinolin-1-yl)acetic acid]
13 | 101 to 20000 | CCC[C@H]1N(C(=O)c2ncccc2C(F)(F)F)CCC[C@@]1(Oc1csc(C(F)(F)F)c1)C(=O)N1CCc2cc(F)ccc2C1CCCO (stereo partly drawn) [Compound A54, 3-(6-fludro-2-{[(2R,3S)-2-propyl-1-{[3-(trifluoromethyl)pyridin-2-yl]carbonyl}-3-{[5-(trifluoromethyl)thiophen-3-yl]oxy}piperidin-3-yl]carbonyl}-1,2,3,4-tetrahydroisoquinolin-1-yl)propan-1-ol]
14 | 1 to 100 | CCC[C@H]1N(C(=O)c2ncccc2C(F)(F)F)CCC[C@@]1(Oc1csc(C(F)(F)F)c1)C(=O)N1CCc2cc(Cl)ccc2C1CC(=O)O (stereo partly drawn) [Compound A55, (6-chloro-2-{[(2R,3S)-2-propyl-1-{[3-(trifluoromethyl)pyridin-2-yl]carbonyl}-3-{[5-(trifluoromethyl)thiophen-3-yl]oxy}piperidin-3-yl]carbonyl}-1,2,3,4-. tetrahydroisoquinolin-1-yl)acetic acid]
15 | 1 to 100 | CCC[C@H]1N(C(=O)c2ncccc2C(F)(F)F)CCC[C@@]1(Oc1csc(C(F)(F)F)c1)C(=O)N1CCc2cc(F)ccc2C1CC(=O)O (stereo partly drawn) [Compound A56, (6-fluoro-2-{[(2R,3S)-2-propyl-1-{[3-(trifluoromethyl)pyridin-2-yl]carbonyl}-3-{[5-(trifluoromethyl)thiophen-3-yl]oxy}piperidin-3-yl]carbonyl}-1,2,3,4-. tetrahydroisoquinolin-1-yl)acetic acid]
16 | 1 to 100 | CCC[C@H]1N(C(=O)c2ncccc2C(F)(F)F)CCC[C@@]1(Oc1csc(C(F)(F)F)c1)C(=O)N1CCc2cc(Br)ccc2C1CCC(=O)O (stereo partly drawn) [Compound A57, 3-(6-bromo-2-{[(2R,3S)-2-propyl-1-{[3-(trifluoromethyl)pyridin-2-yl]carbonyl}-3-{[5-(trifluoromethyl)thiophen-3-yl]oxy}piperidin-3-yl]carbonyl}-1,2,3,4-tetrahydroisoquinolin-1-yl)propanoic acid]
17 | 1 to 100 | CCC[C@H]1N(C(=O)c2ncccc2C(F)(F)F)CCC[C@@]1(Oc1csc(C(F)(F)F)c1)C(=O)N1CCc2cc(Br)ccc2C1CCC(=O)O (stereo partly drawn) [Compound A58, 3-(6-bromo-2-{[(2R,3S)-2-propyl-1-{[3-(trifluoromethyl)pyridin-2-yl]carbonyl}-3-{[5-(trifluoromethyl)thiophen-3-yl]oxy}piperidin-3-yl]carbonyl}-1,2,3,4-tetrahydroisoquinolin-1-yl)propanoic acid]
18 | 1 to 100 | CCC[C@H]1N(C(=O)c2ncccc2C(F)(F)F)CCC[C@@]1(Oc1csc(C(F)(F)F)c1)C(=O)N1CCc2cc(F)ccc2C1CCC(=O)NCc1nn[nH]n1 (stereo partly drawn) [Compound A59, 3-(6-fluoro-2-{[(2R,3S)-2-propyl-1-{[3-(trifluoromethyl)pyridin-2-yl]carbonyl}-3-{[5-(trifluoromethyl)thiophen-3-yl]oxy}piperidin-3-yl]carbonyl}-1,2,3,4-tetrahydroisoquinolin-1-yl)-N-(2H-tetrazol-5-ylmethyl)propanamide]
19 | 1 to 100 | CCC[C@H]1N(C(=O)c2ncccc2C(F)(F)F)CCC[C@@]1(Oc1csc(C(F)(F)F)c1)C(=O)N1CCc2cc(F)ccc2C1CCC(=O)NCc1nn[nH]n1 (stereo partly drawn) [Compound A60, 3-(6-fluoro-2-{[(2R,3S)-2-propyl-1-{[3-(trifluoromethyl)pyridin-2-yl]carbonyl}-3-{[5-(trifluoromethyl)thiophen-3-yl]oxy}piperidin-3-yl]carbonyl}-1,2,3,4-tetrahydroisoquinolin-1-yl)-N-(2H-tetrazol-5-ylmethyl)propanamide]
20 | 1 to 100 | CCC[C@H]1N(C(=O)c2ncccc2C(F)(F)F)CCC[C@@]1(Oc1csc(C(F)(F)F)c1)C(=O)N1CCc2cc(Cl)ccc2C1CCC(=O)NS(C)(=O)=O (stereo partly drawn) [Compound A61, 3-(6-chloro-2-{[(2R,3S)-2-propyl-1-{[3-(trifluoromethyl)pyridin-2-yl]carbonyl}-3-{[5-(trifluoromethyl)thiophen-3-yl]oxy}piperidin-3-yl]carbonyl}-1,2,3,4-tetrahydroisoquinolin-1-yl)-N-(methylsulfonyl) propanamide]
21 | 101 to 20000 | CCC[C@H]1N(C(=O)c2ncccc2C(F)(F)F)CCC[C@@]1(Oc1csc(C(F)(F)F)c1)C(=O)N1CCc2cc(-c3ccccc3)ccc2C1 [Compound A62, 6-phenyl-2-{[(2R,3S)-2-propyl-1-{[3-(trifluoromethyl)pyridin-2-yl]carbonyl}-3-{[5-(trifluoromethyl)thiophen-3-yl]oxy}piperidin-3-yl]carbonyl}-1,2,3,4-tetrahydroisoquinoline]

Source: US9062071B2, “Substituted piperidines as HDM2 inhibitors” (Merck Sharp & Dohme Corp, priority 2011, dated 2015)
